Results from patent publication US11229633B2, “Arimoclomol formulation” (Orphazyme A/S, priority 2014, dated 2022).

Biological target: T1, human OCT2 (Homo sapiens, UniProt O15244)
T1 construct: expressed in transfected cells; host or cells: CHO (protocol UPT-CHO-OCT2-Metf; control: parental CHO-K1)
T1 sequence (O15244 1-555): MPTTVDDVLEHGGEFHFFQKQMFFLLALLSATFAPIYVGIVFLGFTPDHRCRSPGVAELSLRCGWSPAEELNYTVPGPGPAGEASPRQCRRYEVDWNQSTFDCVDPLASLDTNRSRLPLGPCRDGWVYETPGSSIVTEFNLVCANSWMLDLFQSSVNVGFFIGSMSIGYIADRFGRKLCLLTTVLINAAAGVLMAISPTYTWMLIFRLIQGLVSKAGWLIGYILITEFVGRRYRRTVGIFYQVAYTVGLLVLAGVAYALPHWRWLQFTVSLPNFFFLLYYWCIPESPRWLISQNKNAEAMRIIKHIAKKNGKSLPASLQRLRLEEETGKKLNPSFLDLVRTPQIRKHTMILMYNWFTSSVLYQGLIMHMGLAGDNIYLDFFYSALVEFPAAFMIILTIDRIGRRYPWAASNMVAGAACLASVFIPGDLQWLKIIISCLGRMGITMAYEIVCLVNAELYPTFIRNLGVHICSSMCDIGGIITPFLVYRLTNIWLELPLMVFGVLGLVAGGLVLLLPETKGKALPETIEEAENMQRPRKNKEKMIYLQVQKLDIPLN
Test: Uptake transporter substrate feasibility assay, OCT2
Format: in vitro ADME
Parameters: key to Substrate: NIO: No interaction observed
Procedure: Uptake experiments were performed using CHO, MDCKII, or HEK293 cells stably expressing the respective uptake transporters.
Cells were cultured at 37±1° C. in an atmosphere of 95:5 air:CO2 as described in Table 4 and were plated onto standard 24-well tissue culture plates at 2×10^5 cells/well. The uptake of the TA was determined using cells overexpressing the respective uptake transporter and control cells, at two incubation time points (2 and 20 min) and at two concentrations (1 and 10 μM) of TA to determine whether or not the TA was actively taken up into the cells.
Before the experiment, the medium was removed and the cells were washed twice with 300 μl of HK buffer (pH 7.4) (prepared from Sigma chemicals). Cellular uptake of TA into the cells was measured by adding 300 μl of HK buffer containing TA and incubating them at 37±1° C. Reactions were quenched by removing the HK buffer containing the TA and the cells were washed twice with 300 μl of HK buffer. Cells were lysed by adding 300 μl of MeOH:H2O (2:1) and incubated for 20 minutes at 4±1° C. The amount of TA in the cell lysate was determined by LC-MS/MS. The amount of protein in each well was quantified using the BCA kit for protein determination (Sigma-Aldrich, St Louis, Mo., USA). Uptake of the probe substrate in control cells provided background activity values for all data points. Incubation without reference inhibitor (solvent only) provided 100% activity values. A reference inhibitor served as positive control for inhibition.
The fold accumulation value was defined as the ratio of uptake of TA or probe substrate into transfected and control cells:
[formula] UPTTRP: accumulated amount of TA or probe substrate in transfected cells normalized by protein content [pmol/mg protein] UPTCTL: accumulated amount of TA or probe substrate in control cells normalized by protein content [pmol/mg protein]
If the fold accumulation is >2 and can be inhibited by a known inhibitor of the transporter, the TA can be considered to be a substrate of the respective transporter.

`[O-][n+]1cccc(C(Cl)=NOCC(O)CN2CCCCC2)c1` (stereo not shown) [Arimoclomol, N-[2-hydroxy-3-(1-piperidinyl)-propoxy]-pyridine-1-oxide-3-carboximidoyl chloride] was tested, and the “Substrate of the transporter (in words)” value was “not a substrate”, the Fold accumulation (1 μM, 2 min) was 0.95 and the Fold accumulation (1 μM, 20 min) was 1.28. It also gave a Fold accumulation (10 μM, 2 min) of 0.87, a Fold accumulation (10 μM, 20 min) of 1.05 and a Fold accumulation (1 and 10 μM, 2 and 20 min) of less than 2. For the same molecule, the Substrate (Table 2) was “NIO”.
